In ChEMBL document CHEMBL1201861, “Genomics of Drug Sensitity in Cancer screening data, Wellcome Trust Sanger Institute” one finds IC50 data, which are given here for 3 compounds.

As usually defined, the IC50 is the concentration that inhibits the measured activity by half.

One experiment concerns IMR-5. Kind of experiment: cells. Type of experiment: functional, cell-based, Homo sapiens. Conditions: Homo sapiens, IMR-5; read-out: IC50.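 Further: growth inhibition of human IMR-5 cells, read out with a cell viability assay.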
Description: SANGER: Inhibition of human IMR-5 cell growth in a cell viability assay.
With `COc1cc(N2CCC(N3CCN(C)CC3)CC2)ccc1Nc1ncc(Cl)c(Nc2ccccc2S(=O)(=O)C(C)C)n1` [TAE-684], the IC50 is over 2000 nM.
The same measure, in the same setting: with `Nc1ccccc1NC(=O)c1ccc(CNC(=O)OCc2cccnc2)cc1` [ENTINOSTAT] the figure was over 5000 nM.

The subject of the next experiment is LB647-SCLC. Nature of the experiment: cells. The experiment is classed as functional, cell-based, Homo sapiens. The following applies: Homo sapiens, LB647-SCLC.
Description: SANGER: Inhibition of human LB647-SCLC cell growth in a cell viability assay.
In turn, `COc1cc(N2CCC(N3CCN(C)CC3)CC2)ccc1Nc1ncc(Cl)c(Nc2ccccc2S(=O)(=O)C(C)C)n1` [TAE-684] had an IC50 of 1350 nM.
`Nc1ccccc1NC(=O)c1ccc(CNC(=O)OCc2cccnc2)cc1` [ENTINOSTAT] showed an IC50 of 367 nM.

The test system of the next experiment is REH. Nature of the experiment: cells. The experiment is classed as functional, cell-based, Homo sapiens. The following applies: Homo sapiens, REH.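 Further: growth inhibition of REH cells determined with a cell viability read-out.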
Description: SANGER: Inhibition of human REH cell growth in a cell viability assay.
With `COc1cc(N2CCC(N3CCN(C)CC3)CC2)ccc1Nc1ncc(Cl)c(Nc2ccccc2S(=O)(=O)C(C)C)n1` [TAE-684], the IC50 was over 2000 nM.
Same read-out and setting: with `Nc1ccccc1NC(=O)c1ccc(CNC(=O)OCc2cccnc2)cc1` [ENTINOSTAT] the figure was over 5000 nM.

The next experiment deals with ACHN. Kind of experiment: cells. Type of experiment: functional, cell-based. Conditions: Homo sapiens.
Description: SANGER: Inhibition of human ACHN cell growth in a cell viability assay.
In turn, `CO[C@@H]1[C@H](N(C)C(=O)c2ccccc2)C[C@H]2O[C@]1(C)n1c3ccccc3c3c4c(c5c6ccccc6n2c5c31)C(=O)NC4` [MIDOSTAURIN] gave an IC50 of 331 nM.

A further experiment concerns NB17. Kind of experiment: cells. Conditions: Homo sapiens, NB17. The experiment is classed as functional, cell-based, Homo sapiens.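 Further: growth inhibition of NB17 cells, read out with a cell viability assay.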
Description: SANGER: Inhibition of human NB17 cell growth in a cell viability assay.
As for `COc1cc(N2CCC(N3CCN(C)CC3)CC2)ccc1Nc1ncc(Cl)c(Nc2ccccc2S(=O)(=O)C(C)C)n1` [TAE-684], the IC50 was found to be 1010 nM.
On the same count and under the same terms, with `Nc1ccccc1NC(=O)c1ccc(CNC(=O)OCc2cccnc2)cc1` [ENTINOSTAT] the figure was 544 nM.

A further experiment concerns LC4-1. Nature of the experiment: cells. Conditions: Homo sapiens, LC4-1. The experiment is classed as functional, cell-based, Homo sapiens.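 Further: growth inhibition of LC4-1 cells, read out with a cell viability assay.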
Description: SANGER: Inhibition of human LC4-1 cell growth in a cell viability assay.
`COc1cc(N2CCC(N3CCN(C)CC3)CC2)ccc1Nc1ncc(Cl)c(Nc2ccccc2S(=O)(=O)C(C)C)n1` [TAE-684] displayed an IC50 of over 2000 nM.
`Nc1ccccc1NC(=O)c1ccc(CNC(=O)OCc2cccnc2)cc1` [ENTINOSTAT]: the midpoint of inhibition, the IC50, lay at 840 nM.

Another experiment deals with Kasumi 1. Nature of the experiment: cells. Type of experiment: functional, cell-based, Homo sapiens. Conditions: Homo sapiens, Kasumi 1.
Description: SANGER: Inhibition of human KASUMI-1 cell growth in a cell viability assay.
With `COc1cc(N2CCC(N3CCN(C)CC3)CC2)ccc1Nc1ncc(Cl)c(Nc2ccccc2S(=O)(=O)C(C)C)n1` [TAE-684], the IC50 is over 2000 nM.
The same measure, in the same setting: the same measure for `Nc1ccccc1NC(=O)c1ccc(CNC(=O)OCc2cccnc2)cc1` [ENTINOSTAT]: over 5000 nM.

A further experiment relates to SU-DHL-1. Kind of experiment: SANGER: Inhibition of human SU-DHL-1 cell growth in a cell viability assay. The experiment is classed as functional, cell-based. The following applies: Homo sapiens, SU-DHL-1.
As for `CO[C@@H]1[C@H](N(C)C(=O)c2ccccc2)C[C@H]2O[C@]1(C)n1c3ccccc3c3c4c(c5c6ccccc6n2c5c31)C(=O)NC4` [MIDOSTAURIN], the 50% inhibitory concentration (IC50) is over 512 nM.
The same measure, in the same setting: the same measure for `COc1cc(N2CCC(N3CCN(C)CC3)CC2)ccc1Nc1ncc(Cl)c(Nc2ccccc2S(=O)(=O)C(C)C)n1` [TAE-684]: 48.6 nM; for `Nc1ccccc1NC(=O)c1ccc(CNC(=O)OCc2cccnc2)cc1` [ENTINOSTAT]: 659 nM.

A further experiment concerns NB7. Kind of experiment: cells. The experiment is classed as functional, cell-based, Homo sapiens. Conditions: Homo sapiens, NB7.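 Further: growth inhibition of NB7 cells, read out with a cell viability assay.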
Description: SANGER: Inhibition of human NB7 cell growth in a cell viability assay.
`COc1cc(N2CCC(N3CCN(C)CC3)CC2)ccc1Nc1ncc(Cl)c(Nc2ccccc2S(=O)(=O)C(C)C)n1` [TAE-684]: the IC50 was over 2000 nM.
Consider `Nc1ccccc1NC(=O)c1ccc(CNC(=O)OCc2cccnc2)cc1` [ENTINOSTAT], for which the IC50 was over 5000 nM.

A further experiment has as its system NB1. Nature of the experiment: cells. Type of experiment: functional, cell-based, Homo sapiens. The following applies: Homo sapiens, NB1.
Description: SANGER: Inhibition of human NB1 cell growth in a cell viability assay.
`COc1cc(N2CCC(N3CCN(C)CC3)CC2)ccc1Nc1ncc(Cl)c(Nc2ccccc2S(=O)(=O)C(C)C)n1` [TAE-684]: the IC50 was under 7.81 nM.
Compound `Nc1ccccc1NC(=O)c1ccc(CNC(=O)OCc2cccnc2)cc1` [ENTINOSTAT] registered an IC50 of 1280 nM.

In the next experiment the test system is NCI-H748. Nature of the experiment: cells. Type of experiment: functional, cell-based, Homo sapiens. Conditions: Homo sapiens, NCI-H748.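 Further: growth inhibition of NCI-H748 cells, measured by a cell viability assay.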
Description: SANGER: Inhibition of human NCI-H748 cell growth in a cell viability assay.
Compound `COc1cc(N2CCC(N3CCN(C)CC3)CC2)ccc1Nc1ncc(Cl)c(Nc2ccccc2S(=O)(=O)C(C)C)n1` [TAE-684] came in with an IC50 of over 2000 nM.
In turn, `Nc1ccccc1NC(=O)c1ccc(CNC(=O)OCc2cccnc2)cc1` [ENTINOSTAT] returned an IC50 of 103 nM.

For a further experiment, the system named is BC-3. Nature of the experiment: cells. Type of experiment: functional, cell-based, Homo sapiens. The following applies: Homo sapiens, BC-3.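 Further: cell viability assay measuring growth inhibition of human BC-3 cells.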
Description: SANGER: Inhibition of human BC-3 cell growth in a cell viability assay.
Turning to `COc1cc(N2CCC(N3CCN(C)CC3)CC2)ccc1Nc1ncc(Cl)c(Nc2ccccc2S(=O)(=O)C(C)C)n1` [TAE-684], the IC50 is over 2000 nM.
Still for that read-out and setting: with `Nc1ccccc1NC(=O)c1ccc(CNC(=O)OCc2cccnc2)cc1` [ENTINOSTAT] the figure was 783 nM.

A further experiment relates to CESS. Nature of the experiment: SANGER: Inhibition of human CESS cell growth in a cell viability assay. The experiment is classed as functional, cell-based. Conditions: Homo sapiens, CESS.
In turn, `CO[C@@H]1[C@H](N(C)C(=O)c2ccccc2)C[C@H]2O[C@]1(C)n1c3ccccc3c3c4c(c5c6ccccc6n2c5c31)C(=O)NC4` [MIDOSTAURIN] had an IC50 of over 512 nM.
The same measure, in the same setting: with `COc1cc(N2CCC(N3CCN(C)CC3)CC2)ccc1Nc1ncc(Cl)c(Nc2ccccc2S(=O)(=O)C(C)C)n1` [TAE-684] the figure was over 2000 nM.
The same measure, in the same setting: with `Nc1ccccc1NC(=O)c1ccc(CNC(=O)OCc2cccnc2)cc1` [ENTINOSTAT] the figure was 812 nM.

The subject of another experiment is CPC-N. Kind of experiment: cells. Type of experiment: functional, cell-based, Homo sapiens. Conditions: Homo sapiens, CPC-N.
Description: SANGER: Inhibition of human CPC-N cell growth in a cell viability assay.
The compound `COc1cc(N2CCC(N3CCN(C)CC3)CC2)ccc1Nc1ncc(Cl)c(Nc2ccccc2S(=O)(=O)C(C)C)n1` [TAE-684] showed a half-maximal inhibitory concentration (IC50) of 1850 nM.
For `Nc1ccccc1NC(=O)c1ccc(CNC(=O)OCc2cccnc2)cc1` [ENTINOSTAT], the IC50 was 805 nM.

The subject of the next experiment is NCI-H716. Nature of the experiment: cells. Type of experiment: functional, cell-based, Homo sapiens. The following applies: Homo sapiens, NCI-H716.
Description: SANGER: Inhibition of human NCI-H716 cell growth in a cell viability assay.
`COc1cc(N2CCC(N3CCN(C)CC3)CC2)ccc1Nc1ncc(Cl)c(Nc2ccccc2S(=O)(=O)C(C)C)n1` [TAE-684] had a half-maximal inhibitory concentration (IC50) of 1070 nM.
The same measure, in the same setting: with `Nc1ccccc1NC(=O)c1ccc(CNC(=O)OCc2cccnc2)cc1` [ENTINOSTAT] the figure was over 5000 nM.

The next experiment relates to NCI-H1694. Kind of experiment: cells. Type of experiment: functional, cell-based, Homo sapiens. Conditions: Homo sapiens, NCI-H1694.
Description: SANGER: Inhibition of human NCI-H1694 cell growth in a cell viability assay.
For `COc1cc(N2CCC(N3CCN(C)CC3)CC2)ccc1Nc1ncc(Cl)c(Nc2ccccc2S(=O)(=O)C(C)C)n1` [TAE-684], the IC50 was over 2000 nM.
Still for that read-out and setting: with `Nc1ccccc1NC(=O)c1ccc(CNC(=O)OCc2cccnc2)cc1` [ENTINOSTAT] the figure was 4130 nM.

The next experiment relates to NCI-H2052. Nature of the experiment: cells. Type of experiment: functional, cell-based. Conditions: Homo sapiens.
Description: SANGER: Inhibition of human NCI-H2052 cell growth in a cell viability assay.
In turn, `CO[C@@H]1[C@H](N(C)C(=O)c2ccccc2)C[C@H]2O[C@]1(C)n1c3ccccc3c3c4c(c5c6ccccc6n2c5c31)C(=O)NC4` [MIDOSTAURIN] yielded an IC50 of over 512 nM.

The next experiment deals with SCC-4. Nature of the experiment: cells. Type of experiment: functional, cell-based. The following applies: Homo sapiens.
Description: SANGER: Inhibition of human SCC-4 cell growth in a cell viability assay.
In turn, `CO[C@@H]1[C@H](N(C)C(=O)c2ccccc2)C[C@H]2O[C@]1(C)n1c3ccccc3c3c4c(c5c6ccccc6n2c5c31)C(=O)NC4` [MIDOSTAURIN] had an IC50 of 240 nM.

For a further experiment, the system named is JIYOYE. Kind of experiment: cells. Type of experiment: functional, cell-based, Homo sapiens. Conditions: Homo sapiens, JIYOYE.
Description: SANGER: Inhibition of human JiyoyeP-2003 cell growth in a cell viability assay.
Take `COc1cc(N2CCC(N3CCN(C)CC3)CC2)ccc1Nc1ncc(Cl)c(Nc2ccccc2S(=O)(=O)C(C)C)n1` [TAE-684]: the IC50 is over 2000 nM.
In turn, `Nc1ccccc1NC(=O)c1ccc(CNC(=O)OCc2cccnc2)cc1` [ENTINOSTAT] returned an IC50 of 1350 nM.

The next experiment deals with H4. Kind of experiment: cells. The experiment is classed as functional, cell-based. Conditions: Homo sapiens.
Description: SANGER: Inhibition of human H4 cell growth in a cell viability assay.
With `CO[C@@H]1[C@H](N(C)C(=O)c2ccccc2)C[C@H]2O[C@]1(C)n1c3ccccc3c3c4c(c5c6ccccc6n2c5c31)C(=O)NC4` [MIDOSTAURIN], half-maximal inhibition (IC50) was put at 140 nM.

The next experiment concerns PC-3. Kind of experiment: cells. The experiment is classed as functional, cell-based. The following applies: Homo sapiens.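 Further: cell viability assay measuring growth inhibition of PC-3 cells.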
Description: SANGER: Inhibition of human PC-3 cell growth in a cell viability assay.
On to `CO[C@@H]1[C@H](N(C)C(=O)c2ccccc2)C[C@H]2O[C@]1(C)n1c3ccccc3c3c4c(c5c6ccccc6n2c5c31)C(=O)NC4` [MIDOSTAURIN], for which the IC50 was over 512 nM.

In the next experiment the test system is HOP-92. Nature of the experiment: cells. The experiment is classed as functional, cell-based. Conditions: Homo sapiens.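 Further: cell viability readout, with IC50 reflecting inhibition of HOP-92 cell growth.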
Description: SANGER: Inhibition of human HOP-92 cell growth in a cell viability assay.
As for `CO[C@@H]1[C@H](N(C)C(=O)c2ccccc2)C[C@H]2O[C@]1(C)n1c3ccccc3c3c4c(c5c6ccccc6n2c5c31)C(=O)NC4` [MIDOSTAURIN], the IC50 is over 512 nM.

Another experiment relates to NCI-H1436. Kind of experiment: cells. Type of experiment: functional, cell-based, Homo sapiens. The following applies: Homo sapiens, NCI-H1436.
Description: SANGER: Inhibition of human NCI-H1436 cell growth in a cell viability assay.
In turn, `COc1cc(N2CCC(N3CCN(C)CC3)CC2)ccc1Nc1ncc(Cl)c(Nc2ccccc2S(=O)(=O)C(C)C)n1` [TAE-684] yielded an IC50 of over 2000 nM.
Still for that read-out and setting: with `Nc1ccccc1NC(=O)c1ccc(CNC(=O)OCc2cccnc2)cc1` [ENTINOSTAT] the figure was 4180 nM.

In the next experiment the test system is KARPAS-422. Kind of experiment: cells. The experiment is classed as functional, cell-based, Homo sapiens. The following applies: Homo sapiens, KARPAS-422.
Description: SANGER: Inhibition of human KARPAS-422 cell growth in a cell viability assay.
Take `COc1cc(N2CCC(N3CCN(C)CC3)CC2)ccc1Nc1ncc(Cl)c(Nc2ccccc2S(=O)(=O)C(C)C)n1` [TAE-684]: half-maximal inhibition (IC50) required 1100 nM.
Same read-out and setting: the same measure for `Nc1ccccc1NC(=O)c1ccc(CNC(=O)OCc2cccnc2)cc1` [ENTINOSTAT]: 1450 nM.

Another experiment has as its system RPMI-6666. Kind of experiment: cells. Type of experiment: functional, cell-based, Homo sapiens. Conditions: Homo sapiens, RPMI-6666.
Description: SANGER: Inhibition of human RPMI-6666 cell growth in a cell viability assay.
For `COc1cc(N2CCC(N3CCN(C)CC3)CC2)ccc1Nc1ncc(Cl)c(Nc2ccccc2S(=O)(=O)C(C)C)n1` [TAE-684], the half-maximal inhibitory concentration (IC50) was over 2000 nM.
On the same count and under the same terms, with `Nc1ccccc1NC(=O)c1ccc(CNC(=O)OCc2cccnc2)cc1` [ENTINOSTAT] the figure was 411 nM.

Another experiment concerns HEC-1. Kind of experiment: cells. Conditions: Homo sapiens. The experiment is classed as functional, cell-based.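 Further: growth inhibition of the cell line, read out with a cell viability assay.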
Description: SANGER: Inhibition of human HEC-1 cell growth in a cell viability assay.
`CO[C@@H]1[C@H](N(C)C(=O)c2ccccc2)C[C@H]2O[C@]1(C)n1c3ccccc3c3c4c(c5c6ccccc6n2c5c31)C(=O)NC4` [MIDOSTAURIN] had an IC50 of over 512 nM.

A further experiment deals with EB-3. Nature of the experiment: cells. The experiment is classed as functional, cell-based, Homo sapiens. The following applies: Homo sapiens, EB-3.
Description: SANGER: Inhibition of human EB-3 cell growth in a cell viability assay.
In turn, `COc1cc(N2CCC(N3CCN(C)CC3)CC2)ccc1Nc1ncc(Cl)c(Nc2ccccc2S(=O)(=O)C(C)C)n1` [TAE-684] returned an IC50 of over 2000 nM.
`Nc1ccccc1NC(=O)c1ccc(CNC(=O)OCc2cccnc2)cc1` [ENTINOSTAT]: the midpoint of inhibition, the IC50, lay at 4000 nM.

The test system of another experiment is BC1 cell line. Kind of experiment: SANGER: Inhibition of human BC-1 cell growth in a cell viability assay. The experiment is classed as functional, cell-based. Conditions: Homo sapiens, BC1.
The compound `CO[C@@H]1[C@H](N(C)C(=O)c2ccccc2)C[C@H]2O[C@]1(C)n1c3ccccc3c3c4c(c5c6ccccc6n2c5c31)C(=O)NC4` [MIDOSTAURIN] yielded an IC50 of over 512 nM.
Turning to `COc1cc(N2CCC(N3CCN(C)CC3)CC2)ccc1Nc1ncc(Cl)c(Nc2ccccc2S(=O)(=O)C(C)C)n1` [TAE-684], the IC50 is over 2000 nM.
`Nc1ccccc1NC(=O)c1ccc(CNC(=O)OCc2cccnc2)cc1` [ENTINOSTAT] registered an IC50 of 434 nM.
